Assay [1] concerns the target T1, PIK3Cg (Homo sapiens, UniProt P48736). Nature of the assay: Kinobeads competition binding, immobilized CZC31207, Jurkat/Ramos lysate mix. Details: endogenous in cells. As to conditions: 10 μM free compound; mix of Jurkat and Ramos cell lysates. On the procedure: (§1) To the first aliquot of cell lysate 10 μM of the free compound CZC31207 was added and allowed to bind to proteins in the lysate. Then the affinity matrix with the immobilized compound was added to capture proteins that were not interacting with the previously added free compound. Beads were separated from the lysate and bead bound proteins were eluted in SDS sample buffer and subsequently separated by SDS-Polyacrylamide gel electrophoresis (FIG. 5). Suitable gel bands were cut out and subjected to in-gel proteolytic digestion with trypsin. The second lysate aliquot was processed identically, however no free compound was added (DMSO solvent control). Peptides originating from samples 1 and 2 were labeled with iTRAQ reagents (iTRAQ 114 and iTRAQ 116) and the combined samples were analyzed with a nano-flow liquid chromatography system coupled online to a tandem mass spectrometer (LC-MS/MS) experiment followed by iTRAQ reporter ion quantification in the MS/MS spectra as described in Example 2.
(§2) Jurkat cells (ATCC number T1B-152) and Ramos cells (ATCC number CRL-1596) were either obtained from an external supplier (CIL SA, Mons, Belgium) or grown in one litre Spinner flasks (Integra Biosciences, #182101) in suspension in RPMI 1640 medium (Invitrogen, #21875-034) supplemented with 10% Fetal Bovine Serum (Invitrogen, #10270-106) at a density between 0.2×10^6 and 1.0×10^6 cells/ml. Cells were harvested by centrifugation, washed once with 1×PBS buffer (Invitrogen, #14190-094) and cell pellets were frozen in liquid nitrogen and subsequently stored at −80° C.
(§3) The identified kinases are shown in Table 5 including the percent competition values for the sample to which 10 μM free compound had been added. In total of 20 different kinases were identified and competed by different degrees.

For assay [2], the target named is DNAPK (Homo sapiens, UniProt P78527). The assay is described as above. The settings on record: 10 μM free compound; mix of Jurkat and Ramos cell lysates. On the set-up: endogenous in cells. As for the experimental part:
as §1, §2, §3

In assay [3] the target is FRAP (Homo sapiens, UniProt P42345). Described as above. As to conditions: 10 μM free compound; mix of Jurkat and Ramos cell lysates. Details: endogenous in cells. On the procedure: as §1, §2, §3
Assay [4] deals with PIK3Cb (Homo sapiens, UniProt P42338). Described as above. Details: endogenous in cells. The settings on record: 10 μM free compound; mix of Jurkat and Ramos cell lysates. On the procedure: as §1, §2, §3
The target of assay [5] is PIK3Cd (Homo sapiens, UniProt O00329). Described as above. On the set-up: endogenous in cells. As to conditions: 10 μM free compound; mix of Jurkat and Ramos cell lysates. On the procedure:
as §1, §2, §3

Assay [6] deals with T2, NEK2 (Homo sapiens, UniProt P51955). The description is as above. On the set-up: endogenous in cells. The settings on record: 10 μM free compound; mix of Jurkat and Ramos cell lysates. On the procedure: as §1, §2, §3
The target of assay [7] is PIP5K2C (Homo sapiens, UniProt Q8TBX8). The assay is described as above. On the set-up: endogenous in cells. As to conditions: 10 μM free compound; mix of Jurkat and Ramos cell lysates. On the procedure:
as §1, §2, §3

In assay [8] the target is T1, PIK3Cg. Briefly: Kinobeads competition binding, immobilized CZC31207, HeLa/placenta lysate mix. On the set-up: endogenous in cells; host or cells: mix of HeLa cell lysate and placenta lysate. As to conditions: 10 μM free compound; mixed HeLa and placenta cell lysates. As for the experimental part: (§4) To the first aliquot of cell lysate 10 μM of the free compound (CZC31207) was added and allowed to bind to proteins in the lysate. Then the affinity matrix with the immobilized compound (Example 1) was added to capture proteins that were not interacting with the previously added free compound. Beads were separated from the lysate and bead bound proteins were eluted in SDS sample buffer and subsequently separated by SDS-Polyacrylamide gel electrophoresis (FIG. 4). Suitable gel bands were cut out and subjected to in-gel proteolytic digestion with trypsin. The second lysate aliquot was processed identically, however no free compound was added (DMSO solvent control). Peptides originating from samples 1 and 2 were labeled with iTRAQ reagents (iTRAQ 115 and iTRAQ 117) and the combined samples were analyzed with a nano-flow liquid chromatography system coupled online to a tandem mass spectrometer (LC-MS/MS) experiment followed by iTRAQ reporter ion quantification in the MS/MS spectra (Ross et al., 2004. Mol. Cell. Proteomics 3(12):1154-1169). Further experimental protocols can be found in WO2006/134056 and a previous publication (Bantscheff et al., 2007. Nature Biotechnology 25, 1035-1044).
(§5) Cells were homogenized in a Potter S homogenizer in lysis buffer: 50 mM Tris-HCl, 0.8% NP40, 5% glycerol, 150 mM NaCl, 1.5 mM MgCl2, 25 mM NaF, 1 mM sodium vanadate, 1 mM DTT, pH 7.5. One complete EDTA-free tablet (protease inhibitor cocktail, Roche Diagnostics, 1 873 580) per 25 ml buffer was added. The material was dounced 20 times using a mechanized POTTER S, transferred to 50 ml falcon tubes, incubated for 30 minutes rotating at 4° C. and spun down for 10 minutes at 20,000×g at 4° C. (10,000 rpm in Sorvall SLA600, precooled). The supernatant was transferred to an ultracentrifuge (UZ)-polycarbonate tube (Beckmann, 355654) and spun for 1 hour at 145.000×g at 4° C. (40.000 rpm in Ti50.2, precooled). The supernatant was transferred again to a fresh 50 ml falcon tube, the protein concentration was determined by a Bradford assay (BioRad) and samples containing 50 mg of protein per aliquot were prepared. The samples were immediately used for experiments or frozen in liquid nitrogen and stored frozen at −80° C.
(§6) Sepharose-beads with the immobilized compound (100 μl beads per pull-down experiment) were equilibrated in lysis buffer and incubated with a cell lysate sample containing 50 mg of protein on an end-over-end shaker (Roto Shake Genie, Scientific Industries Inc.) for 2 hours at 4° C. Beads were collected, transferred to Mobicol-columns (MoBiTech 10055) and washed with 10 ml lysis buffer containing 0.4% NP40 detergent, followed by 5 ml lysis buffer containing 0.2% detergent. To elute bound proteins, 60 μl 2×SDS sample buffer was added to the column. […]

Assay [9] deals with T2, NEK2. The assay is described as above. Details: endogenous in cells; host or cells: mix of HeLa cell lysate and placenta lysate. The settings on record: 10 μM free compound; mixed HeLa and placenta cell lysates. As for the experimental part: as §4, §5, §6

The structures appear in SMILES notation.

T1 sequence (P48736 whole entry): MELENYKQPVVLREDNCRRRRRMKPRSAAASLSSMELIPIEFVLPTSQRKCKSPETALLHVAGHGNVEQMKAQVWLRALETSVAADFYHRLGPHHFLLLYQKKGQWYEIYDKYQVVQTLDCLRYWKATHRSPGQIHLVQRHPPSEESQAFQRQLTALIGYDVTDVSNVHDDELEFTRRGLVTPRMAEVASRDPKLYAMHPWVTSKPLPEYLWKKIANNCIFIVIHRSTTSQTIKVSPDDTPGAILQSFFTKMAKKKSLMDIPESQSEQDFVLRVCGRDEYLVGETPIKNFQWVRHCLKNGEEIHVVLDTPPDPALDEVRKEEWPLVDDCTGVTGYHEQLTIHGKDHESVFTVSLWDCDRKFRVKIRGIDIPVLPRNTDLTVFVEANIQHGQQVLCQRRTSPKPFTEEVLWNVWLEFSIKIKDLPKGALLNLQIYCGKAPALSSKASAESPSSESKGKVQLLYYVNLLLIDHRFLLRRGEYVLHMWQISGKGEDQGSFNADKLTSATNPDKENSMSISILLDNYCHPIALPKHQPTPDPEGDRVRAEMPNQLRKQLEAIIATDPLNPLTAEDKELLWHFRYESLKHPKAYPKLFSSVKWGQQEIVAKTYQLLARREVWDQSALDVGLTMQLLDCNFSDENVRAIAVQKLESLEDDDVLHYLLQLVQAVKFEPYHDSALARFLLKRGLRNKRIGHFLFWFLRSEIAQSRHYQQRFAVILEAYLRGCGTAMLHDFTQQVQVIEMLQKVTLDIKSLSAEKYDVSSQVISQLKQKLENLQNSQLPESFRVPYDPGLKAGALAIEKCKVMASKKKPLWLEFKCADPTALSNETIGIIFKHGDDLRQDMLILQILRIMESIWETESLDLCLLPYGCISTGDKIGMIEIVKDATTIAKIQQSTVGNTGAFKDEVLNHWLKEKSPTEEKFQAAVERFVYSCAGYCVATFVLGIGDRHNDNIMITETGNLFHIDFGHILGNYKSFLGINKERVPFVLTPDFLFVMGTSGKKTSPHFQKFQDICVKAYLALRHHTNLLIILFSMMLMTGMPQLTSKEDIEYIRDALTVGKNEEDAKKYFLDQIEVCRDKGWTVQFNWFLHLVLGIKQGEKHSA
T2 sequence (P51955 whole entry): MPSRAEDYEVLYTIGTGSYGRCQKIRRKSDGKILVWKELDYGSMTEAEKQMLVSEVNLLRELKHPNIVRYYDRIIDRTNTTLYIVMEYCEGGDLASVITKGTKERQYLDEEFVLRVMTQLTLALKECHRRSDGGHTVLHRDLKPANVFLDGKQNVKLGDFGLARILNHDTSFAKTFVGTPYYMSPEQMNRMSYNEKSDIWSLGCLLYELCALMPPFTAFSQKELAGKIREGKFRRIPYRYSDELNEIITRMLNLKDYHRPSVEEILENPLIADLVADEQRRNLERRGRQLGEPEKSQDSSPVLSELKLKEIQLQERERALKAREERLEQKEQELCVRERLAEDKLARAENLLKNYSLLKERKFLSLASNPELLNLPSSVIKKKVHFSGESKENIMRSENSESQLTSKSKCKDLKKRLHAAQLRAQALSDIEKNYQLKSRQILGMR
PIP5K2C, sequence (Q8TBX8 whole entry): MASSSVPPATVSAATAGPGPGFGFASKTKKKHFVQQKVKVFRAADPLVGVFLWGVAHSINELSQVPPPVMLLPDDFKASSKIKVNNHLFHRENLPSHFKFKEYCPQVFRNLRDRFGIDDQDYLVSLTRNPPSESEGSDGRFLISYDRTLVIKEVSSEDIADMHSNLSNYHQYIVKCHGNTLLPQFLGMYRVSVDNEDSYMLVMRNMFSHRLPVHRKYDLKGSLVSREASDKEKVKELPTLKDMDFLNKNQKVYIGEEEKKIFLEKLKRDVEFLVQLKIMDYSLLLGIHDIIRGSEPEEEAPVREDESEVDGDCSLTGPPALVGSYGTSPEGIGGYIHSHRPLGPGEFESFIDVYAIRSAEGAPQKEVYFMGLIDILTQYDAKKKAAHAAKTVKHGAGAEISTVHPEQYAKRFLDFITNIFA
PIK3Cd, sequence (O00329 whole entry): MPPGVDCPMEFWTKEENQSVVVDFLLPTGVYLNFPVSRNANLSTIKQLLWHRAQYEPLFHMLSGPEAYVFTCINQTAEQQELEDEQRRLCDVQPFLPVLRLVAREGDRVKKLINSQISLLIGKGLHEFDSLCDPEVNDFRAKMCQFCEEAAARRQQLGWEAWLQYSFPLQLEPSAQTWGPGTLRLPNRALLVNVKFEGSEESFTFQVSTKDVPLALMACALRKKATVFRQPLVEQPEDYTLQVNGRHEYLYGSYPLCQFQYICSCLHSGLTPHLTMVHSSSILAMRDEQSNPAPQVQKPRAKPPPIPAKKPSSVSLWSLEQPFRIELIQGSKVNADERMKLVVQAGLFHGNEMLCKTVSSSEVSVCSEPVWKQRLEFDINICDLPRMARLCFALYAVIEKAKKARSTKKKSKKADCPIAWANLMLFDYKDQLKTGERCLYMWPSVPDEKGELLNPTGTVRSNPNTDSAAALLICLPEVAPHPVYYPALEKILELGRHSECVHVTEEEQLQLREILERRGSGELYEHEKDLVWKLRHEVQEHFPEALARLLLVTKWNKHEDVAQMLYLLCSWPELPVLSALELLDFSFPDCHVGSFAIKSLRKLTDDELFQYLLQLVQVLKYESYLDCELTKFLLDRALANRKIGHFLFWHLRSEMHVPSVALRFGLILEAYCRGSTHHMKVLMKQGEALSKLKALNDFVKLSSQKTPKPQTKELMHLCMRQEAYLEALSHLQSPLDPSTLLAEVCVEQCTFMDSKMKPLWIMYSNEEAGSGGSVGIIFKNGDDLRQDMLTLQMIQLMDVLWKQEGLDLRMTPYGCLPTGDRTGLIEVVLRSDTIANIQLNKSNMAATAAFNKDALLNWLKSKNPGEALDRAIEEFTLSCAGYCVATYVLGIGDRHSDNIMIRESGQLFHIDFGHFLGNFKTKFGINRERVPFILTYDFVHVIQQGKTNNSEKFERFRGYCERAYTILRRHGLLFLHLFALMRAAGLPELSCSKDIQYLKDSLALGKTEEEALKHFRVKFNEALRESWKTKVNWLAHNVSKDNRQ
PIK3Cd, sequence (P27986 whole entry partner): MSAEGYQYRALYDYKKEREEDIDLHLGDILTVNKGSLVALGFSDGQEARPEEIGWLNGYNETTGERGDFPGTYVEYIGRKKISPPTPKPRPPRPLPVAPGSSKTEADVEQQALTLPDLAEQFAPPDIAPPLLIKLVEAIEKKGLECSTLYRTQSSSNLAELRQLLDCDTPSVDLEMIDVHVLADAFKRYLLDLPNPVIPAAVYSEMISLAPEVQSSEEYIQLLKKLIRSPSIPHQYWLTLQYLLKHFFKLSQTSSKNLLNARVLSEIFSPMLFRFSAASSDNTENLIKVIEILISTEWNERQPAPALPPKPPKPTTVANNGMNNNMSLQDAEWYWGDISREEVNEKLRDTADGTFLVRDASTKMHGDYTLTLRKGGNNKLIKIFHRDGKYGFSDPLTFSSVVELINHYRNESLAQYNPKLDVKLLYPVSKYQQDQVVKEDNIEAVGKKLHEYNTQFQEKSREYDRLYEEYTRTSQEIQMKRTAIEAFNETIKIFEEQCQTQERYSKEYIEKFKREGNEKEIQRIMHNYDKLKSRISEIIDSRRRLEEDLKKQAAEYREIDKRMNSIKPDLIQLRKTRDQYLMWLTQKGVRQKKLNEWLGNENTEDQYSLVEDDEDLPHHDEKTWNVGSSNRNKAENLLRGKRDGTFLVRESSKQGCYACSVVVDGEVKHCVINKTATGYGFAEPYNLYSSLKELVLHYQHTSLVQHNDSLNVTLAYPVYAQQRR
PIK3Cb, sequence (P42338 whole entry): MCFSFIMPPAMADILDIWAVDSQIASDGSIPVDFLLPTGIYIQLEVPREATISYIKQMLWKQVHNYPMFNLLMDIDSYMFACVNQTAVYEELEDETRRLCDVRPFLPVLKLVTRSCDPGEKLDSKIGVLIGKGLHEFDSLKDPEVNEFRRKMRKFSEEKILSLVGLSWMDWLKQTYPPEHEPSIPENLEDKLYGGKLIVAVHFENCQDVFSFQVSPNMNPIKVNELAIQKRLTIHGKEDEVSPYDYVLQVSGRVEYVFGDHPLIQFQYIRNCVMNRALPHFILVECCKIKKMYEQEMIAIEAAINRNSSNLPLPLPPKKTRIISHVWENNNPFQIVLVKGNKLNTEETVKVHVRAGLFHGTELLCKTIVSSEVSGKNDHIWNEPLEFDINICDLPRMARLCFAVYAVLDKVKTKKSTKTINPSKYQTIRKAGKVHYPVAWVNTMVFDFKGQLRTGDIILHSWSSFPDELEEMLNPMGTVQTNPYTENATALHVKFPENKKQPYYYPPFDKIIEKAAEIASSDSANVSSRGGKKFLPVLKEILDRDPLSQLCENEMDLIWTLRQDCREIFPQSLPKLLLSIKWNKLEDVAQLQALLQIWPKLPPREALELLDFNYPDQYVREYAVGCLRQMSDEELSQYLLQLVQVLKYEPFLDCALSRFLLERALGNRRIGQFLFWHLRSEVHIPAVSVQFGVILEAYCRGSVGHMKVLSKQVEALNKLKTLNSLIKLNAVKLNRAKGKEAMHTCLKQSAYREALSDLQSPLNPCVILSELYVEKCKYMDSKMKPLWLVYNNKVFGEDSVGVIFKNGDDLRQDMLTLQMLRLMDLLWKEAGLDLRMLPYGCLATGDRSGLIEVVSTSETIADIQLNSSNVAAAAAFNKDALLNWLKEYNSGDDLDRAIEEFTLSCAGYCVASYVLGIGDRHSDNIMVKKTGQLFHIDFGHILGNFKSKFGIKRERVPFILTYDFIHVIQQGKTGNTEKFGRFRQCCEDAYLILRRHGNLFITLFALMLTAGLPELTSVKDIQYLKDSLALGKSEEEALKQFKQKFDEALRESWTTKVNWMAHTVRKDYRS
PIK3Cb, sequence (P27986 whole entry partner): as the sequence (P27986 whole entry partner) above

For the molecule `CC(C)NS(=O)(=O)c1cncc(-c2ccc3nc(NC(=O)NCCN)nn3c2)c1` [CZC31207, 5-(2-(3-(2-aminoethyl)ureido)-[1,2,4]triazolo[1,5-a]pyridin-6-yl)-N-isopropylpyridine-3-sulfonamide], the “Competition % PIK3Cg” value in assay [1] is recorded as 91.5%; in assay [8], 80%. Further, the “Competition % DNAPK” value in assay [2] worked out at 38.2%. In addition, the “Competition % FRAP” value in [3] was −87.1%. Further, in [4], the “Competition % PIK3Cb” value is listed as 94.8%. The “Competition % PIK3Cd” value in [5] is on record as 91.3%. Besides, the “Competition % NEK2” value is listed as 17% in [6] and 40.4% in [9]. In addition, the “Competition % PIP5K2C” value in [7] is recorded as 75.5%.

The record behind these values is US8367830B2, “Methods for the identification of phosphatidylinositol kinase interacting molecules and for the purification of phosphatidylinositol kinase proteins” (Cellzome AG, priority 2009, dated 2013).
